Tests used:
southern crabgrass = assay: Test Example 5: herbicidal effect by foliage application, plastic box (Table 20, symbol F); type: in vivo, southern crabgrass (Digitaria ciliaris); settings: foliage application, 320 g/ha; for herbicidal effect on southern crabgrass (F): three weeks after application
How it was run: (§1)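 Plants sown in sterilized diluvial soil and grown 14 days in a greenhouse at 25° C to 30° C, then sprayed on the foliage with the compound's emulsion diluted in water to a predetermined herbicide amount. Injury to weeds and crops scored three weeks after application on a visual rating scale.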

green foxtail = assay: Test Example 5: herbicidal effect by foliage application, plastic box (Table 20, symbol G); type: in vivo, green foxtail (Setaria viridis); settings: foliage application, 320 g/ha; for herbicidal effect on green foxtail (G): three weeks after application
Source text: (§2) [Test Example 5] Herbicidal Effect Test by Foliage Application
(§3) Sterilized diluvial soil was placed in a plastic box having a length of 21 cm, a width of 13 cm, and a depth of 7 cm. The seeds of each of southern crabgrass, green foxtail, barnyard grass, wild oat, blackgrass, Italian ryegrass, windgrass, velvetleaf, redroot pigweed, lambsquarters, chickweed, false cleavers, persian speedwell, corn, soybean, rice, wheat, beet, and rapeseed were sowed in a spot-like manner and covered with the soil having a thickness of about 1.5 cm. Thereafter, the plants were grown in a greenhouse at 25° C. to 30° C. After 14-day growth of the plants, the emulsion agent of the compound of the present invention prepared according to Formulation Example 2 was diluted with water so as to achieve a predetermined herbicide amount, and the diluted emulsion agent was uniformly applied to a foliage part with a small-sized spray. Three weeks after the herbicide application, the effect of the herbicide on each plant was evaluated according to the criteria of Test Example 1.

windgrass = assay: Test Example 5: herbicidal effect by foliage application, plastic box (Table 20, symbol L); type: in vivo, windgrass (Apera spica-venti); settings: foliage application, 320 g/ha; for herbicidal effect on windgrass (L): three weeks after application
Source text: as §2, §3

barnyard grass [1] = assay: Test Example 3: herbicidal effect by foliage application, Wagner pot (Table 18, symbol H); type: in vivo, barnyard grass (Echinochloa crus-galli)
Protocol: [Test Example 3] Herbicidal Effect Test by Foliage Application After alluvial soil was placed into 1/10000 are of Wagner pot, water was poured and mixed to form a submerged condition having a water depth of 0.1 cm to 0.5 cm. Seeds of barnyard grass, Chinese sprangletop, rice flat sedge, and rice were sowed and the pot was placed in a greenhouse at 25° C. to 30° C. for growth of the plants. After 14-day growth of the plants, the emulsion agent of the compound of the present invention prepared according to Formulation Example 2 was diluted with water so as to achieve a predetermined herbicide amount, and the diluted emulsion agent was uniformly applied to a foliage part with a small-sized spray. Three weeks after the herbicide application, the effect of the herbicide on each plant was evaluated according to the criteria of Test Example 1.

barnyard grass [2] = assay: Test Example 5: herbicidal effect by foliage application, plastic box (Table 20, symbol H); type: in vivo, barnyard grass (Echinochloa crus-galli); settings: foliage application, 320 g/ha; for herbicidal effect on barnyard grass (H): three weeks after application
How it was run: as §1

rice flat sedge = assay: Test Example 3: herbicidal effect by foliage application, Wagner pot (Table 18, symbol E); type: in vivo, rice flat sedge (Cyperus iria)
How it was run: (§4)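 Plants were sown in alluvial soil held under 0.1–0.5 cm standing water and grown 14 days in a greenhouse at 25–30 °C. An emulsifiable formulation, water-diluted to the set dose, was then sprayed onto the foliage, and effects were scored three weeks later using previously defined criteria.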

Italian ryegrass = assay: Test Example 5: herbicidal effect by foliage application, plastic box (Table 20, symbol K); type: in vivo, Italian ryegrass (Lolium multiflorum); settings: foliage application, 320 g/ha; for herbicidal effect on Italian ryegrass (K): three weeks after application
Source text: as §2, §3

wild oat = assay: Test Example 5: herbicidal effect by foliage application, plastic box (Table 20, symbol I); type: in vivo, wild oat (Avena fatua); settings: foliage application, 320 g/ha; for herbicidal effect on wild oat (I): three weeks after application
How it was run: as §1

velvetleaf = assay: Test Example 5: herbicidal effect by foliage application, plastic box (Table 20, symbol M); type: in vivo, velvetleaf (Abutilon theophrasti); settings: foliage application, 320 g/ha; for herbicidal effect on velvetleaf (M): three weeks after application
Source text: as §2, §3

blackgrass = assay: Test Example 5: herbicidal effect by foliage application, plastic box (Table 20, symbol J); type: in vivo, blackgrass (Alopecurus myosuroides); settings: foliage application, 320 g/ha; for herbicidal effect on blackgrass (J): three weeks after application
How it was run: as §1

persian speedwell = assay: Test Example 5: herbicidal effect by foliage application, plastic box (Table 20, symbol R); type: in vivo, Persian speedwell (Veronica persica); settings: foliage application, 320 g/ha; for herbicidal effect on persian speedwell (R): three weeks after application
How it was run: as §1

lambsquarters = assay: Test Example 5: herbicidal effect by foliage application, plastic box (Table 20, symbol O); type: in vivo, lambsquarters (Chenopodium album); settings: foliage application, 320 g/ha; for herbicidal effect on lambsquarters (O): three weeks after application
Source text: as §2, §3

Chinese sprangletop = assay: Test Example 3: herbicidal effect by foliage application, Wagner pot (Table 18, symbol D); type: in vivo, chinese sprangletop (Leptochloa chinensis)
How it was run: as §4

[3] = amount of applied herbicide 320 g/ha

| SMILES | herbicidal effect on southern crabgrass (F) (southern crabgrass) | herbicidal effect on green foxtail (G) (green foxtail) | herbicidal effect on windgrass (L) (windgrass) | herbicidal effect on barnyard grass (H) (barnyard grass [1]; 320 g/ha) | herbicidal effect on barnyard grass (H) (barnyard grass [2]) | herbicidal effect on rice flat sedge (E) (rice flat sedge; 320 g/ha) | herbicidal effect on Italian ryegrass (K) (Italian ryegrass) | herbicidal effect on wild oat (I) (wild oat) | herbicidal effect on velvetleaf (M) (velvetleaf) | herbicidal effect on blackgrass (J) (blackgrass) | herbicidal effect on persian speedwell (R) (persian speedwell) | herbicidal effect on lambsquarters (O) (lambsquarters) | herbicidal effect on Chinese sprangletop (D) (Chinese sprangletop; 320 g/ha) | also measured |
| --- | --- | --- | --- | --- | --- | --- | --- | --- | --- | --- | --- | --- | --- | --- |
| COc1cc2sc(-c3ccc(F)cc3)c(-c3c(O)c(C)nn(C)c3=O)c2cc1Cl [5-067] | 0 (Herbicidal rate of 5% or less (almost no effect)) | 0 (Herbicidal rate of 5% or less (almost no effect)) | 1 (Herbicidal rate of 5% or more and less than 20%) | 3 (Herbicidal rate of 40% or more and less than 70%) | 0 (Herbicidal rate of 5% or less (almost no effect)) | 4 (Herbicidal rate of 70% or more and less than 90%) | 0 (Herbicidal rate of 5% or less (almost no effect)) | 0 (Herbicidal rate of 5% or less (almost no effect)) | 0 (Herbicidal rate of 5% or less (almost no effect)) | 1 (Herbicidal rate of 5% or more and less than 20%) | 4 (Herbicidal rate of 70% or more and less than 90%) | 3 (Herbicidal rate of 40% or more and less than 70%) | 5 (Herbicidal rate of 90% or more (almost completely withered)) | – |
| CCOc1ccccc1-c1oc2ccc(Cl)cc2c1-c1c(O)c(C)nn(C)c1=O [9-003] | 0 (Herbicidal rate of 5% or less (almost no effect)) | 0 (Herbicidal rate of 5% or less (almost no effect)) | 0 (Herbicidal rate of 5% or less (almost no effect)) | – | 0 (Herbicidal rate of 5% or less (almost no effect)) | – | 0 (Herbicidal rate of 5% or less (almost no effect)) | 0 (Herbicidal rate of 5% or less (almost no effect)) | 3 (Herbicidal rate of 40% or more and less than 70%) | 0 (Herbicidal rate of 5% or less (almost no effect)) | 3 (Herbicidal rate of 40% or more and less than 70%) | 0 (Herbicidal rate of 5% or less (almost no effect)) | – | Herbicidal effect on H (barnyard grass), foliage application (barnyard grass [1]; [3]): 3 (Herbicidal rate of 40% or more and less than 70%); Herbicidal effect on E (rice flat sedge), foliage application (rice flat sedge; [3]): 1 (Herbicidal rate of 5% or more and less than 20%); Herbicidal effect on D (Chinese sprangletop), foliage application (Chinese sprangletop; [3]): 0 (Herbicidal rate of 5% or less (almost no effect)) |
| Cc1cc2sc(-c3ccc(F)cc3)c(-c3c(O)c(C)nn(C)c3=O)c2cc1C [5-088] | 0 (Herbicidal rate of 5% or less (almost no effect)) | 0 (Herbicidal rate of 5% or less (almost no effect)) | 0 (Herbicidal rate of 5% or less (almost no effect)) | 3 (Herbicidal rate of 40% or more and less than 70%) | 0 (Herbicidal rate of 5% or less (almost no effect)) | 2 (Herbicidal rate of 20% or more and less than 40%) | 1 (Herbicidal rate of 5% or more and less than 20%) | 0 (Herbicidal rate of 5% or less (almost no effect)) | 2 (Herbicidal rate of 20% or more and less than 40%) | 0 (Herbicidal rate of 5% or less (almost no effect)) | 4 (Herbicidal rate of 70% or more and less than 90%) | 0 (Herbicidal rate of 5% or less (almost no effect)) | 2 (Herbicidal rate of 20% or more and less than 40%) | – |
| COc1cc2sc(-c3ccc(F)cc3OC)c(-c3c(O)c(C)nn(C)c3=O)c2cc1Cl [5-075] | 3 (Herbicidal rate of 40% or more and less than 70%) | 5 (Herbicidal rate of 90% or more (almost completely withered)) | 3 (Herbicidal rate of 40% or more and less than 70%) | 5 (Herbicidal rate of 90% or more (almost completely withered)) | 4 (Herbicidal rate of 70% or more and less than 90%) | 3 (Herbicidal rate of 40% or more and less than 70%) | 0 (Herbicidal rate of 5% or less (almost no effect)) | 0 (Herbicidal rate of 5% or less (almost no effect)) | 0 (Herbicidal rate of 5% or less (almost no effect)) | 3 (Herbicidal rate of 40% or more and less than 70%) | 4 (Herbicidal rate of 70% or more and less than 90%) | 4 (Herbicidal rate of 70% or more and less than 90%) | 3 (Herbicidal rate of 40% or more and less than 70%) | – |
| COc1ccccc1-c1sc2c(F)cc(F)cc2c1-c1c(O)c(C)nn(C)c1=O [6-001] | 0 (Herbicidal rate of 5% or less (almost no effect)) | 2 (Herbicidal rate of 20% or more and less than 40%) | 0 (Herbicidal rate of 5% or less (almost no effect)) | 3 (Herbicidal rate of 40% or more and less than 70%) | 3 (Herbicidal rate of 40% or more and less than 70%) | 4 (Herbicidal rate of 70% or more and less than 90%) | 0 (Herbicidal rate of 5% or less (almost no effect)) | 0 (Herbicidal rate of 5% or less (almost no effect)) | 4 (Herbicidal rate of 70% or more and less than 90%) | 0 (Herbicidal rate of 5% or less (almost no effect)) | 0 (Herbicidal rate of 5% or less (almost no effect)) | 3 (Herbicidal rate of 40% or more and less than 70%) | 2 (Herbicidal rate of 20% or more and less than 40%) | – |
| COc1nn(C)c(=O)c(-c2c(-c3cc4ccccc4o3)sc3ccccc23)c1O [1-194] | – | – | – | – | – | – | – | – | – | – | – | – | – | effect on southern crabgrass (F) (southern crabgrass; 3 weeks after application): 0 (Herbicidal rate of 5% or less (almost no effect)); effect on green foxtail (G) (green foxtail; 3 weeks after application): 0 (Herbicidal rate of 5% or less (almost no effect)); effect on windgrass (L) (windgrass; 3 weeks after application): 0 (Herbicidal rate of 5% or less (almost no effect)); herbicidal effect on H (barnyard grass), rating 0-5 (barnyard grass [1]; 320 g/ha): 0 (Herbicidal rate of 5% or less (almost no effect)); effect on barnyard grass (H) (barnyard grass [2]; 3 weeks after application): 0 (Herbicidal rate of 5% or less (almost no effect)); herbicidal effect on E (rice flat sedge), rating 0-5 (rice flat sedge; 320 g/ha): 2 (Herbicidal rate of 20% or more and less than 40%); effect on Italian ryegrass (K) (Italian ryegrass; 3 weeks after application): 3 (Herbicidal rate of 40% or more and less than 70%); effect on wild oat (I) (wild oat; 3 weeks after application): 1 (Herbicidal rate of 5% or more and less than 20%); effect on velvetleaf (M) (velvetleaf; 3 weeks after application): 0 (Herbicidal rate of 5% or less (almost no effect)); effect on blackgrass (J) (blackgrass; 3 weeks after application): 0 (Herbicidal rate of 5% or less (almost no effect)); effect on persian speedwell (R) (persian speedwell; 3 weeks after application): 0 (Herbicidal rate of 5% or less (almost no effect)); effect on lambsquarters (O) (lambsquarters; 3 weeks after application): 0 (Herbicidal rate of 5% or less (almost no effect)); herbicidal effect on D (Chinese sprangletop), rating 0-5 (Chinese sprangletop; 320 g/ha): 0 (Herbicidal rate of 5% or less (almost no effect)) |

Source: patent publication US20230085307A1, “PYRIDAZINONE COMPOUND AND HERBICIDE” (NISSAN CHEMICAL CORPORATION, priority 2019, published 2023)
